Source: EP0807435A2, “Indirect HMG-CoA-reductase inhibitor” (Sertürner Arzneimittel GmbH, priority 1996, dated 1997)

What was measured:
[1] = tested on: kultivierten Rattenhepatocyten; assay: Incorporation of 14C-labelled acetate into the non-saponifiable neutral lipid fraction (cholesterol de novo synthesis); format: cell-based, Ratten
Method: Erfindungsgemäß wurde überraschenderweise an Hand von Messungen des Einbaus von ^14[…] in die Fraktion der nicht-verseifbaren neutralen Lipide von kultivierten Rattenhepatocyten nachgewiesen, daß Luteolin, seine Derivate und […] Verbindungen konzentrationsabhängig die Neusynthese von Cholesterin in […]. Bei Verwendung eines Luteolin-7-0-glucosid-[…] Kulturmedium in einer Konzentration zwischen 0,02 und 0,1 mg/ml […] (Plateau) von ca. 20% ein, ohne daß zytotoxische Wirkungen nachweisbar wären. Bei höheren Konzentrationen (bis 1 mg/ml) […] noch […] auf (maximal 85 %), ohne […] von 2 mg/ml einsetzen. Durch Ersatz des ^14[…] durch […] vor der Bildung von Mevalonat lag; Hemmwirkungen, die zu einer Verschiebung des Musters der Vorläufersterine des Cholesterin […]. Die Aktivität der HMG-CoA-Reduktase, des Schlüsselenzyms der Cholesterinsynthese, wird somit indirekt über […] oder […] des Enzyms gedrosselt.

[2] = rabbits, blood lipids raised by cholesterol diet (200 mg Cholesterin pro kg Körpergewicht über 60 Tage); Chem. Abstr. 76; cited from earlier work

Compound	Hemmung der Cholesterinneusynthese ([1]; concentrations that are maximally achievable in artichoke leaf extract preparations)	Neusynthese von Cholesterin in den Leberzellen ([1]; 14C-acetate incorporation, cultured rat hepatocytes)	lipidsenkende Wirkung im Tierversuch [2]
O=C(/C=C/c1ccc(O)c(O)c1)O[C@@H]1C[C@@](OC(=O)/C=C/c2ccc(O)c(O)c2)(C(=O)O)C[C@@H](O)[C@@H]1O [Cynarin, 1,5-Di-Caffeoyl-D-Chinasäure, reference compound]	keinerlei Hemmung	–	–
O=c1cc(-c2ccc(O)c(O)c2)oc2cc(O)cc(O)c12 [Luteolin, 31,41,5-Tetrahydroxyflavon]	–	konzentrationsabhängig die Neusynthese von Cholesterin in den Leberzellen vermindern	lipidsenkende Wirkung
Luteolin-7-Glycosid	–	–	lipidsenkende Wirkung
